Reference: US20090131468A1, “Bis-(Sulfonylamino) Derivatives in Therapy 065” (AstraZeneca AB, priority 2007, published 2009)

target: T1, human mPGES-1 (Homo sapiens, UniProt O14684); test: Microsomal prostaglandin E synthase biochemical assay; details: microsome preparation containing human mPGES-1; PGH2 10.8 μM, GSH 2.5 mM, pH 6.8; PGE2 quantified by HTRF; average of at least n=2
T1 sequence (O14684 1-152): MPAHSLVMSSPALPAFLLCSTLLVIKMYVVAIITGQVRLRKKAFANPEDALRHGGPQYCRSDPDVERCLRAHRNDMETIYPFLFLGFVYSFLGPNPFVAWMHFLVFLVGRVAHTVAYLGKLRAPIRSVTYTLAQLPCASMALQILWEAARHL
How it was run: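 Human mPGES-1 microsomes (from IL-1β-stimulated A549 cells or Sf9 cells expressing human mPGES-1) were pre-incubated 15 min with compound in potassium phosphate buffer pH 6.8 with GSH. PGH2 was then added, and the reaction was stopped after one minute with acidic ferric chloride/citrate. PGE2 was read by HTRF, and IC50 was taken from control-normalised activity.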

Row | SMILES | IC50 [nM]
1 | NS(=O)(=O)c1ccccc1S(=O)(=O)NC(=O)c1ccc(-c2ccc(Cl)c(Cl)c2)o1 [Example 36, 5-(3,4-Dichlorophenyl)-N-(2-sulfamoylphenyl)sulfonyl-furan-2-carboxamide] | 280
2 | Cc1nc(-c2ccc(C(F)(F)F)cc2)sc1C(=O)NS(=O)(=O)c1ccccc1S(N)(=O)=O [Example 26, 4-Methyl-N-(2-sulfamoylphenyl)sulfonyl-2-[4-(trifluoromethyl)phenyl]1,3-thiazole-5-carboxamide] | 120
3 | Cc1cc(Br)ccc1C(=O)NS(=O)(=O)c1ccccc1S(N)(=O)=O [Example 15, 4-Bromo-2-methyl-N-(2-sulfamoylphenyl)sulfonyl-benzamide] | 2000
4 | COc1c(-c2cc3ccccc3o2)ccc(C(=O)NS(=O)(=O)c2ccccc2S(N)(=O)=O)c1C [Example 69, 4-(Benzofuran-2-yl)-3-methoxy-2-methyl-N-(2-sulfamoylphenylsulfonyl)benzamide] | 79
5 | COCCOCCOc1cc(C(=O)NS(=O)(=O)c2ccccc2S(N)(=O)=O)cnc1C#CC1CCCC1 [Example 136, 6-(Cyclopentylethynyl)-5-(2-(2-methoxyethoxy)ethoxy)-N-(2-sulfamoylphenyl-sulfonyl)nicotinamide] | 65
6 | NS(=O)(=O)c1ccccc1S(=O)(=O)NC(=O)c1ccc(-c2cc3ccccc3o2)cc1O [Example 49, 4-(Benzofuran-2-yl)-2-hydroxy-N-(2-sulfamoylphenylsulfonyl)benzamide] | 8.1
7 | Cc1cc(-c2cc3ccccc3o2)cc(C)c1C(=O)NS(=O)(=O)c1ccccc1S(N)(=O)=O [Example 52, 4-(Benzofuran-2-yl)-2,6-dimethyl-N-(2-sulfamoylphenylsulfonyl)benzamide] | 450
8 | NS(=O)(=O)c1ccccc1S(=O)(=O)NC(=O)c1ccc(Br)cc1 [Example 10, 4-Bromo-N-(2-sulfamoylphenyl)sulfonyl-benzamide] | 440
9 | NS(=O)(=O)c1ccccc1S(=O)(=O)NC(=O)CC12CC3CC(CC(C3)C1)C2 [Example 16, 2-(1-Adamantyl)-N-(2-sulfamoylphenyl)sulfonyl-acetamide] | 5200
